Experimental data published in PubChem BioAssay (NCI).
Several values for one entry are separate records, joined by “and”; a condition that tells them apart may be missing. Identical values can stand only once.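 The compound was tested at five concentrations on cells cultured in 96-well plates, with a 48-hour exposure period. At the GI50, growth is halved. Definition used: TGI = concentration required for complete inhibition of growth.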

Tests used:
Experiment in all cases: NCI anticancer screen, dose series, 48 h
SF-539 CNS = test system: SF-539 CNS
SF-295 CNS = test system: SF-295 CNS
SF-268 CNS = test system: SF-268 CNS
COLO 205 colon = test system: COLO 205 colon
OVCAR-4 ovarian = test system: OVCAR-4 ovarian
HS 578T breast = test system: HS 578T breast
HCC-2998 colon = test system: HCC-2998 colon
SNB-19 CNS = test system: SNB-19 CNS

SMILES	TGI (SF-539 CNS)	TGI (SF-295 CNS)	TGI (SF-268 CNS)	TGI (COLO 205 colon)	TGI (OVCAR-4 ovarian)	TGI (HS 578T breast)	TGI (HCC-2998 colon)	TGI (SNB-19 CNS)	GI50 (SF-539 CNS)	GI50 (SF-295 CNS)	GI50 (SF-268 CNS)	GI50 (COLO 205 colon)	GI50 (OVCAR-4 ovarian)	GI50 (HS 578T breast)	GI50 (HCC-2998 colon)	GI50 (SNB-19 CNS)
O=C1NC(=O)C2=C1CCC2O (centres undefined)	> 100 µM	> 100 µM	> 100 µM	> 100 µM	> 100 µM	> 100 µM	> 100 µM	> 100 µM	–	–	–	–	–	–	–	–
C=C1C(=O)O[C@H]2[C@H]1CC/C(COC(=O)/C=C/c1cccnc1)=C\CC[C@@]1(C)O[C@@H]21	2.97 µM	23.1 µM	18.4 µM	2.82 µM	16.9 µM	36 µM	17.1 µM	28.4 µM	1.5 µM	10.6 µM	4.63 µM	1.06 µM	3.96 µM	4.22 µM	5.02 µM	9.05 µM
O=C(Oc1cccc(Nc2ncnc3ccccc23)c1)c1ccccc1Cl	88.9 µM	47.5 µM	67 µM	> 100 µM	> 100 µM	48.1 µM	39.3 µM	> 100 µM	30.5 µM	20 µM	20.8 µM	24 µM	48.9 µM	19.1 µM	20.4 µM	52.7 µM
Cc1cc(S(=O)(=O)Nc2nnc(-c3ccco3)c(-c3ccco3)n2)c(SCc2ccccc2)cc1Cl	41.1 µM	83.9 µM	41.2 µM	56.3 µM	41.6 µM	64.9 µM	36.8 µM	43.8 µM	19.9 µM	29.2 µM	20.1 µM	26.1 µM	22 µM	29.7 µM	20.4 µM	21.7 µM
O=C(CSc1nc2ccc([N+](=O)[O-])cc2[nH]1)Nc1cccc(C(F)(F)F)c1	11.7 µM	5.65 µM	13.9 µM	3.47 µM	14.5 µM	10.7 µM	12.2 µM	12.7 µM	2.9 µM	1.73 µM	2.73 µM	1.71 µM	1.61 µM	2.45 µM	2.8 µM	2.71 µM
COc1cccc2c(Nc3ccc(C(=O)NCCNCCO)cc3)cc(-c3ccccc3)nc12	> 100 µM	> 100 µM	–	86.6 µM	43.7 µM	> 100 µM	> 100 µM	–	40.9 µM	40.9 µM	–	23.6 µM	13.5 µM	29.3 µM	49.6 µM	–
Cc1c(C(=O)CCl)c(=O)n(-c2ccccc2)n1C	22.9 µM	44.3 µM	19.7 µM	11.2 µM	14.9 µM	5.52 µM	26.6 µM	51.1 µM	7.19 µM	10.9 µM	5.47 µM	3.28 µM	3.68 µM	0.922 µM	12.9 µM	17.1 µM
O=C1c2cccnc2-c2nc(-c3ccccn3)cc3c2c1nc1ccccc13	0.295 µM	1.7 µM	2.5 µM	3.35 µM	0.26 µM	4.65 µM	1.48 µM	2.65 µM	0.0926 µM	0.423 µM	0.449 µM	0.804 µM	0.0699 µM	0.705 µM	0.412 µM	1.13 µM
Clc1ccc(Nc2ccnc(NCCNc3ccnc4cc(Cl)ccc34)n2)cc1	2.8 µM	2.42 µM	2.82 µM	2.92 µM	2.31 µM	4.38 µM	2.59 µM	3.07 µM	1.3 µM	1.16 µM	1.45 µM	1.31 µM	1.03 µM	1.83 µM	1.22 µM	1.54 µM
Cc1c2ncccc2c(C)c2c1[nH]c1ccc(O)cc12	20.8 µM	10.3 µM	19.1 µM	24.3 µM and 111 µM	16 µM	21.2 µM and 84.8 µM	17.9 µM and 12.3 µM	20.2 µM and 84.3 µM	4.85 µM	4.53 µM	7.55 µM	23.1 µM	–	7.84 µM	–	19.7 µM
Cc1c(C(=O)N/N=C/c2ccc(O)cc2)nnn1-c1ccnc2c(C(F)(F)F)cccc12	> 100 µM	> 100 µM	> 100 µM	> 100 µM	> 100 µM	> 100 µM	> 100 µM	76.7 µM	42 µM	22 µM	64.4 µM	> 100 µM	5.09 µM	44.6 µM	> 100 µM	23.5 µM
COc1ccc(/C=C/C(=O)/C=C(/C=C/c2ccc(OC)c(OC)c2)OB(F)F)cc1OC	3.63 µM	4.87 µM	> 100 µM	1.57 µM	> 100 µM	8.15 µM	4.17 µM	5.73 µM	1.18 µM	1.89 µM	2.42 µM	0.37 µM	1.86 µM	1.31 µM	2.02 µM	1.63 µM
Cn1cc(-c2nc(-c3c[nH]c4ncccc34)cs2)c2cc(Cl)ccc21	> 100 µM	8.75 µM	> 100 µM	14.6 µM	> 100 µM	32.7 µM	28.3 µM	> 100 µM	12.1 µM	2.35 µM	5.28 µM	3.74 µM	0.37 µM	4.18 µM	3.47 µM	6.61 µM
COc1ccc(C(=O)c2cc(OC)c(OC)c(OC)c2)cc1/C=C/C(=O)c1ccc(O)cc1	7.9 µM	20.1 µM	95.1 µM	36.3 µM	58.4 µM	> 100 µM	3.16 µM	19.7 µM	2.72 µM	6.5 µM	3.98 µM	15.1 µM	2.73 µM	18.3 µM	1.66 µM	4.42 µM
CC(C)(C)[Si](C)(C)OC1[C@@H](O[Si](C)(C)C(C)(C)C)[C@@H](CNC(=O)NC(=O)NC(=O)CI)O[C@H]1n1cnc2c(NC(=O)Nc3ccccc3)ncnc21 (some centres undefined)	1.16 µM	2.36 µM	7.04 µM	13.2 µM	2.36 µM	17.8 µM	17.8 µM	38.2 µM	0.441 µM	0.849 µM	1.5 µM	6.11 µM	0.665 µM	2.5 µM	8.22 µM	12.5 µM
O=P(Oc1ccccc1)(Oc1ccccc1)C(O)c1ccccc1 (centres undefined)	> 100 µM	> 100 µM	> 100 µM	> 100 µM	> 100 µM	> 100 µM	> 100 µM	> 100 µM	> 100 µM	29.3 µM	> 100 µM	35 µM	58.2 µM	45.9 µM	> 100 µM	> 100 µM
O=C(Nc1ncc([N+](=O)[O-])s1)c1cccc([N+](=O)[O-])c1	37.1 µM	35.1 µM	> 100 µM	24.7 µM	> 100 µM	> 28.4 µM	> 100 µM	> 100 µM	3.23 µM	2.71 µM	8.25 µM	4 µM	3.97 µM	1.72 µM	3.2 µM	3.53 µM
O=C(CCl)Nc1ccccc1SCc1cc(Cl)cc2c1OCOC2	28.7 µM	41.9 µM	23.5 µM	35.5 µM	12.5 µM	38.9 µM	31.5 µM	28.9 µM	15.3 µM	20 µM	7.14 µM	17.3 µM	3.14 µM	6.25 µM	16.6 µM	14.1 µM
CS(=O)(=O)c1ccc(Oc2nccc(-c3c(-c4ccc(F)cc4)ncn3C3CCNCC3)n2)cc1	> 25 µM	> 25 µM	> 25 µM	> 25 µM	> 25 µM	> 25 µM	> 25 µM	> 25 µM	> 25 µM	> 25 µM	> 25 µM	> 25 µM	> 25 µM	> 25 µM	> 25 µM	> 25 µM
OCc1ccc(N(Cc2ccc(F)cc2)C2CCC2)cc1Cl	31.3 µM	12.9 µM	33.9 µM	11.5 µM	2.69 µM	45.4 µM	22.7 µM	27.5 µM	16.7 µM	0.437 µM	18.1 µM	3.5 µM	0.207 µM	19 µM	5.42 µM	13.8 µM
Cc1ccc(C)c(-n2c(-c3ccc(Br)cc3)csc2=NC(=O)c2ccccc2F)c1	> 100 µM	> 100 µM	> 100 µM	> 100 µM	> 100 µM	> 100 µM	> 100 µM	> 100 µM	> 100 µM	52.4 µM	> 100 µM	> 100 µM	9.57 µM	> 100 µM	> 100 µM	> 100 µM
C=C1C(=O)OC2C1C(OC(=O)/C(C)=C/C)CC(O)(CCl)C1C(OC(C)=O)C=C(C)C21O (centres undefined)	41 µM	> 100 µM	32.4 µM	24.3 µM	33.5 µM	> 100 µM	31.9 µM	> 58.9 µM	–	–	–	–	–	–	–	–
COc1cc(-c2cc(C(=O)Nc3nc4ccccc4s3)nc3cc(-c4ccccc4)nn23)cc(OC)c1OC	9.09 µM	32.7 µM	48.8 µM	–	> 100 µM	> 100 µM	> 100 µM	69.5 µM	1.31 µM	10.6 µM	4.5 µM	–	> 100 µM	4.7 µM	> 100 µM	16.7 µM
